Data: PubChem BioAssay AID1963825 (Molecular Pharmacology Branch, DTP, NCI, 2024)

Assay: Anticancer human tumor 997537-175-T-J1-PDC patient-derived colon adenocarcinoma cell line growth inhibition [POLQ]
Settings: 997537-175-T-J1-PDC complex spheroid viability, combination with POLQ inhibitors; for IC50: curve of first compound; for viability, T/C: stronger effect = lower value
Outline: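 Growth inhibition in 3D: complex spheroids (tumor PDC, HUVEC, MSC) treated with POLQ inhibitor combinations; where Cmax unknown, highest tested concentration 10 microM, except SN-38 at 1 microM.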

[1] = second compound 0.0316 µM, first compound 0.0316 µM
[2] = second compound 0.0316 µM, first compound 0.1 µM
[3] = second compound 0.1 µM, first compound 0.0316 µM
[4] = second compound 0.1 µM, first compound 0.1 µM
[5] = second compound 0.316 µM, first compound 0.0316 µM
[6] = second compound 0.316 µM, first compound 0.1 µM
[7] = second compound 1 µM, first compound 0.0316 µM
[8] = second compound 1 µM, first compound 0.1 µM
[9] = second compound 3.16 µM, first compound 0.0316 µM
[10] = second compound 3.16 µM, first compound 0.1 µM
[11] = second compound 10 µM, first compound 0.0316 µM
[12] = second compound 10 µM, first compound 0.1 µM
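Further: luminescence signal used as a surrogate for viable cells; spheroids exposed to drugs for seven days before readout.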

With Cn1ncnc1[C@H]1c2n[nH]c(=O)c3cc(F)cc(c23)N[C@@H]1c1ccc(F)cc1 + Nc1ccc(C#CCN(C(=O)Cc2ncc(C(F)(F)F)cc2C(F)(F)F)c2ccc(F)cc2)nn1 the IC50 (second compound 0.0316 µM) was > 0.1 µM, the IC50 (second compound 0.1 µM) was > 0.1 µM and the IC50 (second compound 0.316 µM) was > 0.1 µM. For the same compound, the IC50 (second compound 1 µM) was > 0.1 µM, the IC50 (second compound 3.16 µM) was > 0.1 µM and the IC50 (second compound 10 µM) was > 0.1 µM. The viability, T/C (second compound 0.0316 µM, first compound 0.000316 µM) was 98.8%, the viability, T/C (second compound 0.0316 µM, first compound 0.001 µM) was 97.4% and the viability, T/C (second compound 0.0316 µM, first compound 0.00316 µM) was 104%. For the same compound, the viability, T/C (second compound 0.0316 µM, first compound 0.01 µM) was 94.5%, the viability, T/C [1] was 98.1% and the viability, T/C [2] was 103%. It also gave a viability, T/C (second compound 0.1 µM, first compound 0.000316 µM) of 103%, a viability, T/C (second compound 0.1 µM, first compound 0.001 µM) of 114% and a viability, T/C (second compound 0.1 µM, first compound 0.00316 µM) of 99.2%. It also gave a viability, T/C (second compound 0.1 µM, first compound 0.01 µM) of 104%, a viability, T/C [3] of 95.7% and a viability, T/C [4] of 99%. The viability, T/C (second compound 0.316 µM, first compound 0.000316 µM) was 100%, the viability, T/C (second compound 0.316 µM, first compound 0.001 µM) was 110% and the viability, T/C (second compound 0.316 µM, first compound 0.00316 µM) was 95.6%. For the same compound, the viability, T/C (second compound 0.316 µM, first compound 0.01 µM) was 106%, the viability, T/C [5] was 95.3% and the viability, T/C [6] was 93.9%. It also gave a viability, T/C (second compound 1 µM, first compound 0.000316 µM) of 105%, a viability, T/C (second compound 1 µM, first compound 0.001 µM) of 90.5% and a viability, T/C (second compound 1 µM, first compound 0.00316 µM) of 89.4%. For the same compound, the viability, T/C (second compound 1 µM, first compound 0.01 µM) was 99.4%, the viability, T/C [7] was 120% and the viability, T/C [8] was 90.5%. For the same compound, the viability, T/C (second compound 3.16 µM, first compound 0.000316 µM) was 101%, the viability, T/C (second compound 3.16 µM, first compound 0.001 µM) was 103% and the viability, T/C (second compound 3.16 µM, first compound 0.00316 µM) was 86.4%. The viability, T/C (second compound 3.16 µM, first compound 0.01 µM) was 95.3%, the viability, T/C [9] was 104% and the viability, T/C [10] was 99.2%. The viability, T/C (second compound 10 µM, first compound 0.000316 µM) was 95.4%, the viability, T/C (second compound 10 µM, first compound 0.001 µM) was 102% and the viability, T/C (second compound 10 µM, first compound 0.00316 µM) was 98.6%. It also gave a viability, T/C (second compound 10 µM, first compound 0.01 µM) of 91.3%, a viability, T/C [11] of 103% and a viability, T/C [12] of 106%.

For O=C(c1cc(Cc2n[nH]c(=O)c3ccccc23)ccc1F)N1CCN(C(=O)C2CC2)CC1 + Nc1ccc(C#CCN(C(=O)Cc2ncc(C(F)(F)F)cc2C(F)(F)F)c2ccc(F)cc2)nn1, the IC50 (second compound 0.0316 µM) was > 10 µM, the IC50 (second compound 0.1 µM) was > 10 µM and the IC50 (second compound 0.316 µM) was > 10 µM. The IC50 (second compound 1 µM) was > 10 µM, the IC50 (second compound 3.16 µM) was > 10 µM and the IC50 (second compound 10 µM) was > 10 µM. The viability, T/C [1] was 108%, the viability, T/C [2] was 104% and the viability, T/C (second compound 0.0316 µM, first compound 0.316 µM) was 100%. It also gave a viability, T/C (second compound 0.0316 µM, first compound 1 µM) of 99.9%, a viability, T/C (second compound 0.0316 µM, first compound 3.16 µM) of 95.3% and a viability, T/C (second compound 0.0316 µM, first compound 10 µM) of 82%. The viability, T/C [3] was 108%, the viability, T/C [4] was 103% and the viability, T/C (second compound 0.1 µM, first compound 0.316 µM) was 94.4%. For the same compound, the viability, T/C (second compound 0.1 µM, first compound 1 µM) was 93.7%, the viability, T/C (second compound 0.1 µM, first compound 3.16 µM) was 84.6% and the viability, T/C (second compound 0.1 µM, first compound 10 µM) was 94.8%. It also gave a viability, T/C [5] of 106%, a viability, T/C [6] of 111% and a viability, T/C (second compound 0.316 µM, first compound 0.316 µM) of 104%. For the same compound, the viability, T/C (second compound 0.316 µM, first compound 1 µM) was 98.3%, the viability, T/C (second compound 0.316 µM, first compound 3.16 µM) was 93.5% and the viability, T/C (second compound 0.316 µM, first compound 10 µM) was 98.9%. For the same compound, the viability, T/C [7] was 104%, the viability, T/C [8] was 98.2% and the viability, T/C (second compound 1 µM, first compound 0.316 µM) was 103%. The viability, T/C (second compound 1 µM, first compound 1 µM) was 104%, the viability, T/C (second compound 1 µM, first compound 3.16 µM) was 93.2% and the viability, T/C (second compound 1 µM, first compound 10 µM) was 99.3%. It also gave a viability, T/C [9] of 96.7%, a viability, T/C [10] of 94.4% and a viability, T/C (second compound 3.16 µM, first compound 0.316 µM) of 98.8%. The viability, T/C (second compound 3.16 µM, first compound 1 µM) was 90.1%, the viability, T/C (second compound 3.16 µM, first compound 3.16 µM) was 98.5% and the viability, T/C (second compound 3.16 µM, first compound 10 µM) was 95.3%. The viability, T/C [11] was 108%, the viability, T/C [12] was 103% and the viability, T/C (second compound 10 µM, first compound 0.316 µM) was 97.3%. For the same compound, the viability, T/C (second compound 10 µM, first compound 1 µM) was 91.3%, the viability, T/C (second compound 10 µM, first compound 3.16 µM) was 112% and the viability, T/C (second compound 10 µM, first compound 10 µM) was 98.9%.
